The text below walks through data of article PMC9354705, “Characterization of TR‐107, a novel chemical activator of the human mitochondrial protease ClpP” (Pharmacology Research & Perspectives, 2022).

Data set [1] relates to MDA‐MB‐231 cells. The data set is described as follows: Cell viability (total cell count, Hoechst stain) in MDA‐MB‐231 cells. Particulars: for IC50: Homo sapiens, MDA-MB-231, 72 h. It is filed as cell-based, human.
The subject of data set [2] is MDA‐MB‐231 or SUM159 cells. Put plainly: Caspase‐3/7 activity assay and PARP cleavage. It is filed as cell-based, human. On the procedure: […]. The samples were collected in lysis buffer (50 mM HEPES [pH: 7.4], 5 mM CHAPS, and 5 mM DTT), and caspase activity was measured by monitoring fluorescence (ex/em: 360/460 nm) using a SpectraMax i3x (Molecular Devices).
The nature of data set [3]: Protein binding to plasma proteins (equilibrium dialysis). Particulars: mouse plasma, read-out: serum‐free fraction. It is filed as in vitro ADME. As to the method: Protein‐binding studies were performed by Eurofins Panlabs, Inc. This assay utilizes equilibrium dialysis in a microplate format, as previously described.[47] Briefly, this analysis is used to determine the bound and unbound fraction of the drug and calculate the percentage of the test compound binding to murine plasma proteins.
(In general: In equilibrium dialysis free small molecules cross a membrane that holds back macromolecules.)

The subject of data set [4] is MDA‐MB‐231 or SUM159 cells. The data set is described as follows: Time‐course total cell count in MDA‐MB‐231 or SUM159 cells. It is filed as cell-based, human. Particulars: up to 72 h, both cell lines, vs vehicle control. On the procedure: (§1) Total cell counting assays were performed by seeding MDA‐MB‐231 cells (WT and ClpP‐KO; 4000 cells/well) or SUM159 (WT and ClpP‐KO; 1000 cells/well) in a 96‐well plate (Perkin Elmer, 6005050) and allowed to adhere overnight. The growth medium was then aspirated and replaced with 100 μl of growth medium supplemented with the drug at concentrations indicated in the figure or figure legends. Cells treated with vehicle control (0.1% DMSO, Sigma‐Aldrich D2650) were used as a negative control in all experiments, and cells were incubated with drug‐containing media for 24, 48, or 72 h as indicated in figure legends. Media was then aspirated and replaced with 100 μl Dulbecco's phosphate‐buffered saline (DPBS Gibco, 14190‐144) containing 1 μg/ml Hoechst stain (ThermoFischer Scientific, H3570) and allowed to incubate at 37°C for 30 min. The total cell number was then quantified using the Celigo Imaging Cytometer (Nexcelom).

The test system of data set [5] is MDA‐MB‐231 cells. The data set is described as follows: Mitochondrial respiration analysis (Seahorse XF). Particulars: 24 h. The data set is classed as cell-based, human. As to the method:
Cellular oxygen consumption and extracellular acidification rates (OCR and ECAR, respectively) were measured using Seahorse XFe96 (Agilent). MDA‐MB‐231 cells were plated (15 000 cells/well) in Seahorse XF96 plates (Agilent, 102416‐100) and allowed to adhere overnight. Cells were then treated with 25 or 50 nM TR‐107 for 24 h. On the day of Seahorse XF analysis, the growth medium was replaced with an XF base medium (Agilent, 103575‐100) supplemented with appropriate concentrations of TR‐107. After measurement of basal OCR/ECAR, 1 μM Oligomycin, 1 μM FCCP, and 1 μM Rotenone/Antimycin A (Agilent, 103015‐100) were added at indicated time points. OCR/ECAR were measured every 6.5 min for 73 min.

The nature of data set [6]: Pharmacokinetic analysis in ICR mice. The data set is classed as in vivo, mouse. Particulars: male, mouse, plasma, ICR mice. On the procedure:
Samples were placed in tubes containing heparin sodium and stored on ice until centrifuged. Blood samples were centrifuged at 6800g for 6 min at 2–8°C within 1 h following sample collection and stored at −80°C. Proteins from plasma sample aliquots (20 μl) were precipitated by the addition of MeOH (400 μl) containing an internal standard (tolbutamide,100 ng/ml), vortexed for 1 min, and centrifuged at 18 000g for 7 min. The supernatant (200 μl) was transferred to 96 well plates for analysis.
Analysis of samples was conducted as follows. […] The PK parameters including Area Under the Curve (AUC[0–∞]) elimination half‐life (t 1/2), maximal plasma concentration (C max), and oral bioavailability (F%) were analyzed by noncompartmental methods.

The target in data set [7] is purified recombinant human ClpP (Homo sapiens, UniProt Q16740). Put plainly: In vitro ClpP activity assay (casein‐FITC degradation). It is filed as biochemical. To be noted: relative to DMSO, read-out: EC50 (nM) ClpP activation. On the procedure:
Measurement of in vitro activity of purified recombinant human ClpP was performed with a slight modification to the method previously described.[46] Briefly, ClpP activity was measured through the degradation of casein‐FITC (Sigma‐Aldrich, C0528) in the presence of indicated compounds. […] Enzyme and compounds were mixed and incubated in assay buffer for 30 min before adding casein‐FITC substrate. […] Linear slope of fluorescence signal was used to measure ClpP activity and normalized to DMSO control, expressed as RFU/h.

For data set [8], the system named is SUM159 cells. Put plainly: Cell viability (total cell count, Hoechst stain) in SUM159 cells. It is filed as cell-based. To be noted: Homo sapiens, WT cells, 72 h, mean N = 3. As to the method: Human TNBC cell line SUM159 was a generous gift from Dr. Gary Johnson (the University of North Carolina at Chapel Hill). MDA‐MB‐231 (WT and CLPP‐KO) cells were provided by Dr. Stanley Lipkowitz (National Cancer Institute). MDA‐MB‐231 cells were cultured in RPMI‐1640 media (Gibco, 11875‐093) supplemented with 10% fetal bovine serum (FBS; VWR‐Seradigm, 97068‐085), and 1% antibiotic–antimycotic (anti/anti; ThermoFisher Scientific, 15240062). SUM159 cells were cultured in Dulbecco's modified Eagle's medium: Nutrient Mixture F‐12 (DMEM/F12; Gibco, 11330‐032) supplemented with 5% FBS, 5 μg/ml insulin (Gibco, 12585014), 1 μg/ml hydrocortisone, and 1% anti/anti. Cells were maintained at 5% CO2 and 37°C and periodically tested for mycoplasma.
as §1

In data set [9] the test system is C3(1)‐Tag cells. Put plainly: Cell viability assay of C3Tag cells. The data set is classed as cell-based, murine. To be noted: Mus musculus; 72 h, Hoechst stain, N = 2.

Molecules are shown by their SMILES. Where two headings read alike, the source gives them in different places.

purified recombinant human ClpP, sequence (Q16740 57-277): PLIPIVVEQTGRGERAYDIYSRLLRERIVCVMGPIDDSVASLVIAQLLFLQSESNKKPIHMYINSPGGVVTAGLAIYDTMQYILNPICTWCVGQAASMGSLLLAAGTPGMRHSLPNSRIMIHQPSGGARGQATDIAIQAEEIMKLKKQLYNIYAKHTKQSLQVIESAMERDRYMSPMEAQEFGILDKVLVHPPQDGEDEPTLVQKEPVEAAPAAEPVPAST

With `N#Cc1cccc(CN2CCc3ncn(Cc4ccc(Cl)cc4)c(=O)c3C2)c1` [TR‐107], the half-maximal inhibitory concentration (IC50) in [1] (WT cells, Hoechst stain, mean N = 3, read-out: IC50 (nM) MDA-MB-231) stood at 23 nM; in [1] (media containing galactose, read-out: IC50 (nM) Galactose), 9.8 nM; in data set [1] (media containing glucose, read-out: IC50 (nM) Glucose), 19 nM; in data set [8], 12 nM; in data set [9], 22 nM. For the same compound, the “shift of growth inhibition dose–response (IC50) glucose to galactose” value in [1] (galactose instead of glucose, MDA‐MB‐231, 72 h) is reported as ~ 2 fold. Moreover, the “caspase‐3/7 activity” value in [2] (24 h, 10 μM ONC201, 150 nM TR‐57, 100 nM TR‐107, 100 nM staurosporine) was “no increase”. Further, the PARP cleavage entry in [2] (data not shown) is recorded as “no increase”. Moreover, the fraction unbound in data set [3] is 0.1. Further, the “concentrations inhibiting the increase in cell number” value in data set [4] was > 10 nM. The “decline in oxygen consumption rate (OCR)” value in [5] (ClpP‐KO MDA‐MB‐231, 25, 50 nM) was “not observed”. In data set [5] (MDA‐MB‐231, 25, 50 nM), the “extracellular acidification (ECAR)” value was “dose‐dependent increase”. The “oxygen consumption rate (OCR)” value in [5] (WT MDA‐MB‐231, 25, 50 nM) is on record as “dose‐dependent decline”. Moreover, in data set [6] (po, 10 mg/kg orally, read-out: exposure (AUC)), the AUC amounted to 2360 ng·h/mL. This compound showed a total exposure AUC(0-inf) in data set [6] (10 mg/kg oral) of 2360 ng·h/mL. Moreover, the Cmax is 3.7 µM in data set [6] (10 mg/kg oral, read-out: C max) and 0.00144 mg/mL in data set [6] (10 mg/kg oral, read-out: C max (mg/ml)). In addition, in [6] (10 mg/kg oral, read-out: T 1/2 (converted)), the half-life is 54 min. In addition, in data set [7], the concentration giving a half-maximal response (EC50) worked out at 140 nM.

A word on the IC50: it is the midpoint of a concentration-inhibition curve. What is called AUC is the area under the concentration-time curve, a measure of exposure. As a reminder, the AUC(0-inf) is the area under the concentration-time curve extrapolated to infinity. Low values mean less exposure, high ones more exposure. By EC50 is commonly meant the concentration that produces a half-maximal response.
